Data from PMC6669600 (Viruses, 2019).

Legend:
[1] = target: N36 (gp41 NHR-derived target mimic peptide) (Human immunodeficiency virus type 1 group M subtype B, UniProt P04578); experiment: CD spectroscopy of inhibitor complexed with N36; format: binding, HIV-1; conditions: α-helical content of complex, each peptide 10 μM in PBS pH 7.2, 20 C, [θ]222; repeated two times, representative data
[2] = target: T1, N39 (gp41 NHR-derived target mimic peptide) (Human immunodeficiency virus type 1 group M subtype B, UniProt P04578); experiment: CD spectroscopy of inhibitor complexed with N39; format: binding, HIV-1; conditions: each peptide 10 μM in PBS, repeated two times, representative data
T1 construct: we further used the NHR-derived peptide N39
T1 sequence (P04578 528-566): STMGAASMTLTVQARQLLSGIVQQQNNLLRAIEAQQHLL

N36 (gp41 NHR-derived target mimic peptide), sequence (P04578 546-581): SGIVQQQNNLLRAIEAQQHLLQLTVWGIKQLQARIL

Substance | CD data (with N36) Helix (%) [1] | α-helical content of complex with N39 [2]
Ac-WEEWDKKIEEYTKKIEELIKK-NH2 [SC21EK] | 82.8% | 
Ac-WEEWDKKIEEYTKKIEELIKKSE-NH2 [SC23EK] | 80.7% | 
Ac-MTWEEWDKKIEEYTKKIEELIKKSEEQQK-NH2 [MT-SC27EK] | 87.4% | 
Ac-WEEWDRKIEEYTKKIEELIKKSQNQQEKN-NH2 [WQ-EKN] | 89.5% | 
Ac-MTWEEWDKKIEEYTKKIEELIKKSEEQQKKNEKELK-NH2 [MT-SC34EK] | 92% | 
Ac-WEEWDKKIEEYTKKIEELIKKSEEQQ-NH2 [SC26EK] | 83.1% | 
Ac-MTWEEWDKKIEEYTKKIEELIK-NH2 [MT-SC20EK] | 82% | 
Ac-WEEWDRKIEEYTKKIEELIKKSQNQQIDL-NH2 [WQ-IDL, reference compound] | 87.8% | 
Ac-MTWEEWDKKIEEYTKKIEELIKKS-NH2 [MT-SC22EK] | 84.6% | 
Ac-MTWEEWDKKIEEYTKKIEELI-NH2 [MT-SC19EK] | 84.8% | 
Ac-WMEWDREINNYTSLIHSLIEESQNQQEKAEQELL-NH2 [C34N145A] | 81% | 
Ac-WEEWDKKIEEYTKKIEELIKKSEEQQK-NH2 [SC27EK] | 85.7% | 
Ac-WEEWDKKIEEYTKKIEELIKKSEEQQKK-NH2 [SC28EK] | 87.7% | 
Ac-MTWEEWDKKIEEYTKKIEELIKKSEEQQKKNE-NH2 [MT-SC30EK] | 92.6% | 
Ac-MTWEEWDKKIEEYTKKIEELIKK-NH2 [MT-SC21EK] | 83.9% | 
Ac-MTWEEWDKKIEEYTKKIEELIKKSEEQQKKNEKEL-NH2 [MT-SC33EK] | 93.8% | 
Ac-WEEWDKKIEEYTKKIEELIKKSEEQQKKNEKEL-NH2 [SC33EK] | 94.1% | 
Ac-WEEWDKKIEEYTKKIEELIKKSEE-NH2 [SC24EK] | 79.9% | 
enfuvirtide |  | 53%
Ac-WEEWDKKIEEYTKKIEELIKKSEEQQKKN-NH2 [SC29EK, reference compound] | 88.9% | 

Substance | CD data (with N36) Helix (%) [1] | α-helical content of complex with N39 [2]
Ac-WEEWDKKIEEYTKKIEELIKKSEEQQKKNEK-NH2 [SC31EK] | 91.4% | 
Ac-MTWEEWDKKIEEYTKKIEELIKKSEEQQKKN-NH2 [MT-SC29EK] | 92% | 
Ac-WEEWDKKIEEYTKKIEELIKKSEEQQKKNEKE-NH2 [SC32EK] | 93.2% | 
Ac-MTWEEWDKKIEEYTKKIEEL-NH2 [MT-SC18EK] | 56.3% | 
Ac-WEEWDKKIEEYTKKIEELIKKSEEQQKKNE-NH2 [SC30EK] | 92.9% | 
Ac-WEEWDKKIEEYTKKIEELIK-NH2 [SC20EK] | 78.8% | 
Ac-WEEWDKKIEEYTKKIEELIKKSEEQQKKNEKELK-NH2 [SC34EK, reference compound] | 92.6% | 
Ac-MTWEEWDRKIEEYTKKIEELIKKSQNQQIDL-NH2 [MT-WQ-IDL, reference compound] | 86.9% | 
Ac-MTWEEWDKKIEEYTKKIEELIKKSEEQQKKNEKE-NH2 [MT-SC32EK] | 91.8% | 
Ac-MTWEEWDKKIEEYTKKIEELIKKSEE-NH2 [MT-SC24EK] | 83.8% | 
Ac-MTWEEWDKKIEEYTKKIEELIKKSEEQQ-NH2 [MT-SC26EK] | 85.2% | 
Ac-MTWEEWDKKIEEYTKKIEELIKKSE-NH2 [MT-SC23EK] | 84.1% | 
Ac-MTWEEWDKKIEEYTKKIEELIKKSEEQ-NH2 [MT-SC25EK] | 84.9% | 
Ac-MTWEEWDKKIEEYTKKIEELIKKSEEQQKKNEK-NH2 [MT-SC31EK] | 92.4% | 
Ac-WEEWDKKIEEYTKKIEELIKKS-NH2 [SC22EK] | 85.5% | 
Ac-WEEWDKKIEEYTKKIEELIKKSEEQ-NH2 [SC25EK] | 78.4% | 
Ac-MTWEEWDKKIEEYTKKIEELIKKSEEQQKK-NH2 [MT-SC28EK] | 84.5% | 
Ac-WEEWDKKIEEYTKKIEELI-NH2 [SC19EK] | 80.3% | 
Ac-MTWEEWDRKIEEYTKKIEELIKKSQNQQEKN-NH2 [MT-WQ-EKN] | 90.6% | 
